Reference: ChEMBL document CHEMBL1201862, “PubChem BioAssay data set” (2004)
Calls of active or inactive are those of the source. Unless noted, the calls are words filed in the database; no cut-off is given here.

Key:
[1] = molecular target: T1, E3 ubiquitin-protein ligase XIAP (Homo sapiens, UniProt P98170); test: SAR analysis of Antagonists of XIAP-Bir3 domain of IAP-family anti-apoptotic proteins. [Related pubchem assays (depositor defined):AID1018, AID1449, AID1513, AID1514, AID1638]
[2] = molecular target: T1, E3 ubiquitin-protein ligase XIAP; test: SAR analysis of Antagonists of IAP-family anti-apoptotic proteins. [Related pubchem assays (depositor defined):AID1018, AID1449, AID1513, AID1514, AID1638]
[3] = molecular target: T2, Delta-type opioid receptor (Homo sapiens, UniProt P41143); test: HTS Image-Based Screen for Antagonists of the DOR Receptor. [Related pubchem assays (depositor defined):AID1777, AID1785, AID1786, AID2133]; format: functional
T2 sequence (P41143 whole entry): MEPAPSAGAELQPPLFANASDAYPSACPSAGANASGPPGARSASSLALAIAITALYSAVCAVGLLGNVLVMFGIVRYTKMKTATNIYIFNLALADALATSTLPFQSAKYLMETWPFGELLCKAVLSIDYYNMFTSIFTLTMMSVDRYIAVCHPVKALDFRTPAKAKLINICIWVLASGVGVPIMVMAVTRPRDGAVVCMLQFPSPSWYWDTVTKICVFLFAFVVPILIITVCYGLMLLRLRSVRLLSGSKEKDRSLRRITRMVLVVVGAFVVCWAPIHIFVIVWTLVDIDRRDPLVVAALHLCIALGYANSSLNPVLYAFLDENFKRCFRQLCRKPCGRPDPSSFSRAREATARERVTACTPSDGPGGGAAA

Mu-type opioid receptor = Mu-type opioid receptor (Homo sapiens, UniProt P35372); test: HTS Image-Based Screen for Agonists of the MOR Receptor. [Related pubchem assays (depositor defined):AID1777, AID1785, AID1786, AID2133]; format: functional;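 further: imaging of beta-arrestin GFP recruitment into spots after receptor activation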
Mu-type opioid receptor, sequence (P35372 whole entry): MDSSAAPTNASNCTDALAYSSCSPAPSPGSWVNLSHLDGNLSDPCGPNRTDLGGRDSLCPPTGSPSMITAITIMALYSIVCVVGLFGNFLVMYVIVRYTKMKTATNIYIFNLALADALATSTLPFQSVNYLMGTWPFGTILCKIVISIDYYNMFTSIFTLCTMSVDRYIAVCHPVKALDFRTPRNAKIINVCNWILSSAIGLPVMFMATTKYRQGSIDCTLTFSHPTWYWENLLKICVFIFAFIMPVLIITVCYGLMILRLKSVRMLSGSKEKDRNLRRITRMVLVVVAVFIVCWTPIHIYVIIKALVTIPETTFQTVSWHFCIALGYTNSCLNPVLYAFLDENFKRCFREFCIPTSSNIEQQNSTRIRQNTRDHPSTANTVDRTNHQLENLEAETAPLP

[4] = molecular target: T2, Delta-type opioid receptor; test: HTS Image-Based Screen for Agonists of the DOR Receptor. [Related pubchem assays (depositor defined):AID1777, AID1786, AID2133]; format: functional
[5] = molecular target: T3, Kappa-type opioid receptor (Homo sapiens, UniProt P41145); format: functional
T3 sequence (P41145 whole entry): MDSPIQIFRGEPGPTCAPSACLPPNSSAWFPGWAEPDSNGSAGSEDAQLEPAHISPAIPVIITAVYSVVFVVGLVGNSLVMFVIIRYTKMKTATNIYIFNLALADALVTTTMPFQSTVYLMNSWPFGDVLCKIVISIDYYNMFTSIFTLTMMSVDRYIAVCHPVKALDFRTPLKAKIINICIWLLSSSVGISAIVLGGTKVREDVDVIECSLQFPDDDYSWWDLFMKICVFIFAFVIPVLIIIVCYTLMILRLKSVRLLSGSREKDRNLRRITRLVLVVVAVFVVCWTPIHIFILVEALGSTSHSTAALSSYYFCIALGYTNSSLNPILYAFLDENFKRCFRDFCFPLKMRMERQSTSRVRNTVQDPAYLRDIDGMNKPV

[6] = molecular target: T3, Kappa-type opioid receptor; format: functional; remark: listed apart in the source
[7] = molecular target: T4, Short transient receptor potential channel 4 (Mus musculus, UniProt Q9QUQ5); test: block of DAMGO-driven TRPC4 calcium entry – cell-based, HEK293 TRPC4/mu-opioid, Fluo-4 calcium, dose response (AID 434942); format: functional;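 further: potency of inhibitors blocking the TRPC4 calcium response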
T4 sequence (Q9QUQ5 whole entry): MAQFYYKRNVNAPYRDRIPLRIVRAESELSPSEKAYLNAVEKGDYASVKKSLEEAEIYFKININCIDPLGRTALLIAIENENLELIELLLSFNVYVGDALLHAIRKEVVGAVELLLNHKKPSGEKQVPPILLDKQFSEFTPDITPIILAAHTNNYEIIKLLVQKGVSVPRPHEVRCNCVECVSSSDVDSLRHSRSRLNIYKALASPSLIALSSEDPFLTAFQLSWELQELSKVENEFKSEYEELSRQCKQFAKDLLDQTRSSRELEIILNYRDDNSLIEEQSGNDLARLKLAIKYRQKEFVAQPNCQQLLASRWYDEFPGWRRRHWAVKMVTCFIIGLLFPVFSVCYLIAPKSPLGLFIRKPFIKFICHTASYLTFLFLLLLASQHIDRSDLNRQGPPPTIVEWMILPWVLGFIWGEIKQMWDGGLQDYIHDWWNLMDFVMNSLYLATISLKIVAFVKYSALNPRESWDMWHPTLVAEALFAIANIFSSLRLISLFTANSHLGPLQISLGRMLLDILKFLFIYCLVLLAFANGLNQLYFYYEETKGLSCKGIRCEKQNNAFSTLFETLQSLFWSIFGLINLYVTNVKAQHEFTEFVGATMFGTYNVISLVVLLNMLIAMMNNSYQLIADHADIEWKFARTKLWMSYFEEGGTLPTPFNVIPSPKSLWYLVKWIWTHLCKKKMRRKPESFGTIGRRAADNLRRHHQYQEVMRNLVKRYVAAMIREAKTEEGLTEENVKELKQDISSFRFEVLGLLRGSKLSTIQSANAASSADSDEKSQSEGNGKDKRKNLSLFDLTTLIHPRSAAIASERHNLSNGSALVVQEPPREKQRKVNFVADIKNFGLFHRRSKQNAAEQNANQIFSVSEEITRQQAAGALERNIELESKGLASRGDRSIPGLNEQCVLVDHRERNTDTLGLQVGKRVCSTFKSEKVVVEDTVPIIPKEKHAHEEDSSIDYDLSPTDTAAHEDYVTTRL

[8] = molecular target: T5, Tyrosine-protein phosphatase non-receptor type 22 (Homo sapiens, UniProt Q9Y2R2); test: SAR LYP1 Fluorescent Assay using pCAP substrate for In Vitro dose response studies - Set 2. [Related pubchem assays (depositor defined):AID1779, AID1784, AID2135, AID449727]; format: functional
T5 sequence (Q9Y2R2 whole entry): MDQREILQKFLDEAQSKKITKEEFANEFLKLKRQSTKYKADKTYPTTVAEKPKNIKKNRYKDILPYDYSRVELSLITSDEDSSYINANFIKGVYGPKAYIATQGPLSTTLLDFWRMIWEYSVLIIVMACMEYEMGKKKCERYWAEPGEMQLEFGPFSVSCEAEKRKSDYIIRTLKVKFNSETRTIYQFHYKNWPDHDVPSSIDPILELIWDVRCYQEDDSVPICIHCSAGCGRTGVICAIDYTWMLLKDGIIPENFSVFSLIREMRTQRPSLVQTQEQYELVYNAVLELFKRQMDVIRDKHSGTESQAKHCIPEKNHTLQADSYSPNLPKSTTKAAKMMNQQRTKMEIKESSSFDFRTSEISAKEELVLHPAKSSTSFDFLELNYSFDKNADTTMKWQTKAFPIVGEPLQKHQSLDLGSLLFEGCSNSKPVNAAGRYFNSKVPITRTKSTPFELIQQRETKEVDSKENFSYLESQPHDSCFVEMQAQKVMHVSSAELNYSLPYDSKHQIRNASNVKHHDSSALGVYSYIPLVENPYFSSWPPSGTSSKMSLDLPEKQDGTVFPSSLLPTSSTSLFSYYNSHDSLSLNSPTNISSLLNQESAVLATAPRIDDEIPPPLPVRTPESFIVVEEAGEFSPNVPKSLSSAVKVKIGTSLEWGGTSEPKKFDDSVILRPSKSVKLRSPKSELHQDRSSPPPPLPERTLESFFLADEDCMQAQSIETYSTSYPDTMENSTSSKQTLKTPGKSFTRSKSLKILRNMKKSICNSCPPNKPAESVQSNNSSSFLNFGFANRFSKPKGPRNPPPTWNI

[9] = molecular target: Tyrosine-protein phosphatase non-receptor type 12 (Homo sapiens, UniProt Q05209); test: SAR Selectivity Analysis of small molecule inhibitors of PEST using pCAP in a fluorescence assay. [Related pubchem assays (depositor defined):AID1779, AID1784, AID2135]; format: functional
Tyrosine-protein phosphatase non-receptor type 12, sequence (Q05209 whole entry): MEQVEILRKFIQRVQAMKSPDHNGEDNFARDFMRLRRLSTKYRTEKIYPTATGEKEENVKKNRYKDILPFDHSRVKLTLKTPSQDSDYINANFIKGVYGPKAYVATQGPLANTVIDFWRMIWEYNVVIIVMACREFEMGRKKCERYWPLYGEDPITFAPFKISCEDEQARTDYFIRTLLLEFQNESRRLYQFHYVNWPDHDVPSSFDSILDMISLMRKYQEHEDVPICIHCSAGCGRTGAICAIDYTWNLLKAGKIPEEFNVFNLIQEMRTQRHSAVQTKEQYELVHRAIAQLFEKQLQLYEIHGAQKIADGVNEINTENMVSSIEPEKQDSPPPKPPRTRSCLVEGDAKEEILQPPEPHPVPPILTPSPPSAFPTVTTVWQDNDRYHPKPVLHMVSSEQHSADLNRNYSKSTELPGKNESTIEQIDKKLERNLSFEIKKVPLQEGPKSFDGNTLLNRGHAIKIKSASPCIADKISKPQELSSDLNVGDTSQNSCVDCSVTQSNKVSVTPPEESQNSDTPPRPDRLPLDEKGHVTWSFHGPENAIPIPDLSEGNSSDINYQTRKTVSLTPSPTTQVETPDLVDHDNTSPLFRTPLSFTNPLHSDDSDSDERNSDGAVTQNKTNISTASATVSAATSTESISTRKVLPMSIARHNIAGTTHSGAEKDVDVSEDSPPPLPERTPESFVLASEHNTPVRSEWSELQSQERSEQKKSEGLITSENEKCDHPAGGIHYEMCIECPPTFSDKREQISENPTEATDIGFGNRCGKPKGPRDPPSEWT

[10] = molecular target: T5, Tyrosine-protein phosphatase non-receptor type 22; test: SAR LYP1 Fluorescent Assay using OMFP substrate for In Vitro dose response studies - Set 3. [Related pubchem assays (depositor defined):AID1779, AID1784, AID2140, AID2686]; format: functional
[11] = molecular target: T6, Tyrosine-protein phosphatase non-receptor type 7 (Homo sapiens, UniProt P35236); test: inhibition of hematopoietic tyrosine phosphatase HePTP – biochemical, set 2, SAR follow-up (AID 449736); format: functional
T6 sequence (P35236 whole entry): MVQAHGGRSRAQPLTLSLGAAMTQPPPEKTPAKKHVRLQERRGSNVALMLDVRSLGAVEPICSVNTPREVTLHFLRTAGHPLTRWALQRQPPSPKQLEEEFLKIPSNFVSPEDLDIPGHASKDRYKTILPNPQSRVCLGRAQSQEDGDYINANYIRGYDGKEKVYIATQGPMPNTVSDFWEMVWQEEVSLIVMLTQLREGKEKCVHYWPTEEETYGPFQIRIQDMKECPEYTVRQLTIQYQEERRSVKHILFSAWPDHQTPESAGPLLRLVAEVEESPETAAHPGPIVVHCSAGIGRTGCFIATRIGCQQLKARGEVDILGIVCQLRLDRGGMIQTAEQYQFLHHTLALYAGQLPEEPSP

[12] = molecular target: T5, Tyrosine-protein phosphatase non-receptor type 22; test: inhibition of lymphoid tyrosine phosphatase LYP – biochemical, pCAP fluorogenic substrate, fluorescence, set 3, SAR follow-up (AID 449727); format: functional
[13] = molecular target: T5, Tyrosine-protein phosphatase non-receptor type 22; test: PubChem AID 2135
[14] = molecular target: T5, Tyrosine-protein phosphatase non-receptor type 22; test: PubChem AID 2140
[15] = molecular target: T5, Tyrosine-protein phosphatase non-receptor type 22; test: SAR LYP1 Fluorescent Assay using OMFP substrate for In Vitro dose response studies - Set 2. [Related pubchem assays (depositor defined):AID1779, AID1784, AID2140, AID449726, AID488869]; format: functional
[16] = molecular target: T3, Kappa-type opioid receptor; test: SAR analysis of small molecule antagonists of the kappa opioid receptor via a luminescent beta-arrestin assay - Set 4. [Related pubchem assays (depositor defined):AID1777, AID1778, AID1785, AID1786, AID1966, AID2133, AID2136, AID2285]; format: functional
[17] = molecular target: T3, Kappa-type opioid receptor; test: SAR analysis of small molecule antagonists of the kappa opioid receptor via a luminescent beta-arrestin assay - Set 5. [Related pubchem assays (depositor defined):AID1778, AID1785]; format: functional
[18] = molecular target: Sphingosine 1-phosphate receptor 5 (Homo sapiens, UniProt Q9H228); test: (§1) Late-stage fluorescence-based dose-response cell-based assay to identify agonists of the Sphingosine 1-Phosphate Receptor 4 (S1P4): Sphingosine 1-Phosphate Receptor 5 (S1P5) counterscreen assay. [Related pubchem assays (depositor defined):AID1509, AID1523, AID1563, AID1686, AID1701, AID1801, AID463107, AID463225, AID504400]; format: functional
Sphingosine 1-phosphate receptor 5, sequence (Q9H228 whole entry): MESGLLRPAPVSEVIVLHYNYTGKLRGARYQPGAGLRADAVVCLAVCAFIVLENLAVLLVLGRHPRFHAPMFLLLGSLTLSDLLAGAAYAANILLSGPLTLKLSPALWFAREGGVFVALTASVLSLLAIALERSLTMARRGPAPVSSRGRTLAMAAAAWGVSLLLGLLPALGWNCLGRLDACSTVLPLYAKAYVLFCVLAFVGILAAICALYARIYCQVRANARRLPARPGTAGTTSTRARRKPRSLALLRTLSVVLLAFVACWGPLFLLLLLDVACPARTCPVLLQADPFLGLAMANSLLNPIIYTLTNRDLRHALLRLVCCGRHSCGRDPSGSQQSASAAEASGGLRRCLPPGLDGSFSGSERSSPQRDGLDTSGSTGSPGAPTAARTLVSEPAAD

[19] = molecular target: Sphingosine 1-phosphate receptor 1 (Homo sapiens, UniProt P21453); test: as §1, with “1 (S1P1)” for “5 (S1P5)”; format: functional
Sphingosine 1-phosphate receptor 1, sequence (P21453 whole entry): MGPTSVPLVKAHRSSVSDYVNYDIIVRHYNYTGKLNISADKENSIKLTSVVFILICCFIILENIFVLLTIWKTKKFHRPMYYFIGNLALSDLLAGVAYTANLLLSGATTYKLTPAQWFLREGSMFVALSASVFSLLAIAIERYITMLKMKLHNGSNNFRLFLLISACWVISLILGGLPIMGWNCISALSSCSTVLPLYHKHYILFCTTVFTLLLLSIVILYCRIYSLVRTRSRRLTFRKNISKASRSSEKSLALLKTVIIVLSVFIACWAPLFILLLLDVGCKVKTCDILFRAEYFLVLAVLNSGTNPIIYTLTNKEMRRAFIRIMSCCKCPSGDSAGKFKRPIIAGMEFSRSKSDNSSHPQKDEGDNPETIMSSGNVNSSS

[20] = molecular target: Sphingosine 1-phosphate receptor 2 (Homo sapiens, UniProt O95136); test: as §1, with “2 (S1P2)” for “5 (S1P5)”; format: functional
Sphingosine 1-phosphate receptor 2, sequence (O95136 whole entry): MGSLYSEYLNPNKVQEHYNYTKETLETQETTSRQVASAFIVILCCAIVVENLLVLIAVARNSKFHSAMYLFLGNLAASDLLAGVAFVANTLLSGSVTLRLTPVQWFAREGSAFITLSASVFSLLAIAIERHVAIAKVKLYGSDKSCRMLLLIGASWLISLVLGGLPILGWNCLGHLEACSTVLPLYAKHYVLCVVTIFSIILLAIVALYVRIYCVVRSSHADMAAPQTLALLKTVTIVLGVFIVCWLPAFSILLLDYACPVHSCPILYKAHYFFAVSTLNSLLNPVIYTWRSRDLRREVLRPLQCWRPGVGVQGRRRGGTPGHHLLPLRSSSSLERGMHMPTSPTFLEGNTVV

[21] = molecular target: Sphingosine 1-phosphate receptor 3 (Homo sapiens, UniProt Q99500); test: as §1, with “3 (S1P3)” for “5 (S1P5)”; format: functional
Sphingosine 1-phosphate receptor 3, sequence (Q99500 whole entry): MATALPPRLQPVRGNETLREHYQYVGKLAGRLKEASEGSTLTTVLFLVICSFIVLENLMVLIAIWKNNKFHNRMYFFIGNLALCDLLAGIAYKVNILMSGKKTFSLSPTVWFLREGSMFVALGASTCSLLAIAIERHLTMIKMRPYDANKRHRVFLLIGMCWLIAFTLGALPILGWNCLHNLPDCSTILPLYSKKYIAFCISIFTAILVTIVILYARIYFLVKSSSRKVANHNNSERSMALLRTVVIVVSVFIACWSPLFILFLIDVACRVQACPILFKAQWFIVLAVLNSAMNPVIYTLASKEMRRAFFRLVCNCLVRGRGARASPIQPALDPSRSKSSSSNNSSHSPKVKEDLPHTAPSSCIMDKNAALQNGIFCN

T1 sequence (P98170 whole entry, the tested form may be a part): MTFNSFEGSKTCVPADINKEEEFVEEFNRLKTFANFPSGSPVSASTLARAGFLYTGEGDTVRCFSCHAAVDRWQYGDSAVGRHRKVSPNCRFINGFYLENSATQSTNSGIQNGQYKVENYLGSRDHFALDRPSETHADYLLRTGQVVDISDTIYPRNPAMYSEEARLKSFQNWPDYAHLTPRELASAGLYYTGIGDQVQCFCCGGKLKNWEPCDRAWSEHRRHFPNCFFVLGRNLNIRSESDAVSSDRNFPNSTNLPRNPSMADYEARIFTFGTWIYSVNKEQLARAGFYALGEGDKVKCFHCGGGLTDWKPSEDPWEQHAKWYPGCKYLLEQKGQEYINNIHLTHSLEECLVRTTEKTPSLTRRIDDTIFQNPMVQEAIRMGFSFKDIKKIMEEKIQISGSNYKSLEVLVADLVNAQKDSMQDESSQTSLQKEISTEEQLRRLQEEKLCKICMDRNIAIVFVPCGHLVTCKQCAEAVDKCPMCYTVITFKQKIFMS

In the case of `CN[C@@H](C)C(=O)NC1CCCN([C@@H](C)C(=O)Nc2ccc3ccccc3c2)C1=O` (some centres not stated), the IC50 [1] is reported as > 100 µM (inactive) and the IC50 [2] is reported as > 100 µM (inactive).
With `Cc1cccc(-n2ccnc2CN2CCC(CO)(Cc3ccccc3)CC2)c1` the IC50 [3] was > 32 µM (inactive), the EC50 (Mu-type opioid receptor) was > 32 µM (inactive) and the EC50 [4] was > 32 µM (inactive). For the same compound, the EC50 [5] was 4.15 µM, the EC50 [6] was 5.69 µM and the EC50 [7] was 1.68 µM (active).
`N#C/C(=C/c1ccc(OCc2cccc(C(=O)O)c2)c(Cl)c1)c1cccc(F)c1` was tested, and the IC50 [8] was > 100 µM (inactive), the IC50 [9] was 17 µM (active) and the IC50 [10] was > 100 µM (inactive). The IC50 [11] was 4.78 µM (active), the IC50 [12] was > 100 µM (inactive) and the IC50 [13] was > 100 µM (inactive). The IC50 [14] was > 100 µM (inactive) and the IC50 [15] was 99.1 µM (active).
For `Cc1ccc(N2CCN(CCCNC(=O)Cn3c(=O)c4cccn4c4cc(Br)cnc43)CC2)cc1`, the IC50 [16] was 9.68 µM (active) and the IC50 [17] was 3.86 µM (active).
`FCc1ccc(OCCOc2ccc(Cl)cc2Cl)c(Cl)n1` was tested, and the EC50 [18] was > 50 µM (inactive), the EC50 [19] was > 50 µM (inactive) and the EC50 [20] was > 50 µM (inactive). The EC50 [21] was > 50 µM (inactive).
